According to PubChem BioAssay AID1963848 (Molecular Pharmacology Branch, DTP, NCI, 2024):

System: 379773-124-R-J2-PDC spheroid viability
Assay: Anticancer human tumor 379773-124-R-J2-PDC patient-derived endometrial carcinoma cell line growth inhibition [POLQ]
Settings: spheroids with HUVEC and MSC; for IC50: curve of first compound; for viability, T/C: stronger effect = lower value
Method in brief: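 Growth inhibition in 3D: complex spheroids (tumor PDC, HUVEC, MSC) treated with POLQ inhibitor combinations; where Cmax unknown, highest tested concentration 10 microM, except SN-38 at 1 microM.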

[1] = second compound 0.0316 µM, first compound 0.0316 µM
[2] = second compound 0.0316 µM, first compound 0.1 µM
[3] = second compound 0.1 µM, first compound 0.0316 µM
[4] = second compound 0.1 µM, first compound 0.1 µM
[5] = second compound 0.316 µM, first compound 0.0316 µM
[6] = second compound 0.316 µM, first compound 0.1 µM
[7] = second compound 1 µM, first compound 0.0316 µM
[8] = second compound 1 µM, first compound 0.1 µM
[9] = second compound 3.16 µM, first compound 0.0316 µM
[10] = second compound 3.16 µM, first compound 0.1 µM
[11] = second compound 10 µM, first compound 0.0316 µM
[12] = second compound 10 µM, first compound 0.1 µM
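Note: spheroids exposed to drugs for seven days before readout.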
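Throughout, for viability, T/C: percent viability relative to DMSO vehicle control taken as 100%.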

Compound: Cn1ncnc1[C@H]1c2n[nH]c(=O)c3cc(F)cc(c23)N[C@@H]1c1ccc(F)cc1 + Cc1cccc(N(C)C(=O)C2C(O)CCN2c2nc(C)cc(C(F)(F)F)c2C#N)c1
- IC50 (second compound 0.0316 µM): > 100 nM
- IC50 (second compound 0.1 µM): > 100 nM
- IC50 (second compound 0.316 µM): > 100 nM
- IC50 (second compound 1 µM): > 100 nM
- IC50 (second compound 3.16 µM): 90.1 nM
- IC50 (second compound 10 µM): > 100 nM
- viability, T/C (second compound 0.0316 µM, first compound 0.000316 µM): 79.1%
- viability, T/C (second compound 0.0316 µM, first compound 0.001 µM): 78.9%
- viability, T/C (second compound 0.0316 µM, first compound 0.00316 µM): 74.5%
- viability, T/C (second compound 0.0316 µM, first compound 0.01 µM): 89.8%
- viability, T/C [1]: 67.8%
- viability, T/C [2]: 60.8%
- viability, T/C (second compound 0.1 µM, first compound 0.000316 µM): 86.3%
- viability, T/C (second compound 0.1 µM, first compound 0.001 µM): 77.2%
- viability, T/C (second compound 0.1 µM, first compound 0.00316 µM): 90.2%
- viability, T/C (second compound 0.1 µM, first compound 0.01 µM): 82.8%
- viability, T/C [3]: 61.5%
- viability, T/C [4]: 55.6%
- viability, T/C (second compound 0.316 µM, first compound 0.000316 µM): 85.7%
- viability, T/C (second compound 0.316 µM, first compound 0.001 µM): 79.7%
- viability, T/C (second compound 0.316 µM, first compound 0.00316 µM): 74.2%
- viability, T/C (second compound 0.316 µM, first compound 0.01 µM): 73.6%
- viability, T/C [5]: 82.8%
- viability, T/C [6]: 55.5%
- viability, T/C (second compound 1 µM, first compound 0.000316 µM): 76.8%
- viability, T/C (second compound 1 µM, first compound 0.001 µM): 87.3%
- viability, T/C (second compound 1 µM, first compound 0.00316 µM): 75.8%
- viability, T/C (second compound 1 µM, first compound 0.01 µM): 76.7%
- viability, T/C [7]: 65.6%
- viability, T/C [8]: 60.6%
- viability, T/C (second compound 3.16 µM, first compound 0.000316 µM): 74.9%
- viability, T/C (second compound 3.16 µM, first compound 0.001 µM): 83.3%
- viability, T/C (second compound 3.16 µM, first compound 0.00316 µM): 67.6%
- viability, T/C (second compound 3.16 µM, first compound 0.01 µM): 84.2%
- viability, T/C [9]: 70.2%
- viability, T/C [10]: 47.8%
- viability, T/C (second compound 10 µM, first compound 0.000316 µM): 76.8%
- viability, T/C (second compound 10 µM, first compound 0.001 µM): 78%
- viability, T/C (second compound 10 µM, first compound 0.00316 µM): 74.7%
- viability, T/C (second compound 10 µM, first compound 0.01 µM): 70.5%
- viability, T/C [11]: 62.7%
- viability, T/C [12]: 54.1%

Compound: CCCS(=O)(=O)Nc1ccc(F)c(C(=O)c2c[nH]c3ncc(-c4ccc(Cl)cc4)cc23)c1F + Cc1cccc(N(C)C(=O)C2C(O)CCN2c2nc(C)cc(C(F)(F)F)c2C#N)c1
- IC50 (second compound 0.0316 µM): > 10000 nM
- IC50 (second compound 0.1 µM): > 10000 nM
- IC50 (second compound 0.316 µM): > 10000 nM
- IC50 (second compound 1 µM): > 10000 nM
- IC50 (second compound 3.16 µM): > 10000 nM
- IC50 (second compound 10 µM): > 10000 nM
- viability, T/C [1]: 88.6%
- viability, T/C [2]: 102%
- viability, T/C (second compound 0.0316 µM, first compound 0.316 µM): 90.9%
- viability, T/C (second compound 0.0316 µM, first compound 1 µM): 99.4%
- viability, T/C (second compound 0.0316 µM, first compound 3.16 µM): 82.1%
- viability, T/C (second compound 0.0316 µM, first compound 10 µM): 62.3%
- viability, T/C [3]: 101%
- viability, T/C [4]: 89.5%
- viability, T/C (second compound 0.1 µM, first compound 0.316 µM): 95.2%
- viability, T/C (second compound 0.1 µM, first compound 1 µM): 87.4%
- viability, T/C (second compound 0.1 µM, first compound 3.16 µM): 86.6%
- viability, T/C (second compound 0.1 µM, first compound 10 µM): 58.7%
- viability, T/C [5]: 97.4%
- viability, T/C [6]: 98.5%
- viability, T/C (second compound 0.316 µM, first compound 0.316 µM): 94.9%
- viability, T/C (second compound 0.316 µM, first compound 1 µM): 87.1%
- viability, T/C (second compound 0.316 µM, first compound 3.16 µM): 78.5%
- viability, T/C (second compound 0.316 µM, first compound 10 µM): 60.1%
- viability, T/C [7]: 98.9%
- viability, T/C [8]: 88.7%
- viability, T/C (second compound 1 µM, first compound 0.316 µM): 85.2%
- viability, T/C (second compound 1 µM, first compound 1 µM): 86.5%
- viability, T/C (second compound 1 µM, first compound 3.16 µM): 80.3%
- viability, T/C (second compound 1 µM, first compound 10 µM): 64.3%
- viability, T/C [9]: 92%
- viability, T/C [10]: 90.4%
- viability, T/C (second compound 3.16 µM, first compound 0.316 µM): 85.7%
- viability, T/C (second compound 3.16 µM, first compound 1 µM): 85.3%
- viability, T/C (second compound 3.16 µM, first compound 3.16 µM): 73.8%
- viability, T/C (second compound 3.16 µM, first compound 10 µM): 63%
- viability, T/C [11]: 89.9%
- viability, T/C [12]: 92.1%
- viability, T/C (second compound 10 µM, first compound 0.316 µM): 87.7%
- viability, T/C (second compound 10 µM, first compound 1 µM): 83.9%
- viability, T/C (second compound 10 µM, first compound 3.16 µM): 77.8%
- viability, T/C (second compound 10 µM, first compound 10 µM): 53.9%
